Results: patent US20230322797A1, “SOLID FORMS, PHARMACEUTICAL COMPOSITIONS AND PREPARATION OF HETEROAROMATIC MACROCYCLIC ETHER COMPOUNDS” (Nuvalent, Inc., priority 2022, published 2023)
Counter-ions that a name gives are not always drawn.

Columns and labels:
[1] = Solubility of salts of Compound 2 and free base in distilled water (gravimetric); format: physicochemical; settings: for Solubility (mg solid/mL water): distilled water, RT, stirred 3 days, gravimetric; for XRPD Pattern Recovered: solid recovered after slurry in water at RT
Protocol: Solubility of the scaled-up salts of Compound 2 and free base Compound 2 was assessed in distilled water at RT. Approximately 30 mg of solid was weighed directly into 2 mL vials, and a 6 mm stir bar was added to each vial. Water was then incrementally added to the vials (starting with 1 vol.) and the resulting slurries were left to stir for 10-15 min prior to the next addition. As all solids remained in slurries upon the addition of 1 mL of water, the gravimetric method was adopted, and the vials were stirred at RT for 3 days before centrifuging. Supernatant solutions were recovered and evaporated to dryness at 50° C. in atmosphere on a hot plate, then placed at 50° C. under vacuum (˜−29 inHg) for 3 h before final weighing.

[2] = Solid-form stability study of salts of Compound 2 (75% RH, 40° C., 7 days); format: physicochemical; settings: for Purity (%) After / Purity (%) Before: HPLC; for Purity (%) After / XRPD Pattern After: after 7 days at 75% RH and 40° C.; for Purity (%) Before: before stress test
Protocol: Solid-form stability studies were completed by weighing approximately 30 mg each of Form A of the camsylate, esylate, mesylate, and sulfate salts of Compound 2 into 4 mL vials and covering with a Kimwipe. The vials were placed inside a humidity chamber set to 75% RH at 40° C. for 7 days. The HPLC and XRPD data was collected to confirm the purity and identity of the solid forms. The four salts were physically and chemically stable. No decrease in purity (i.e. less than 0.1%) or form change was observed after a seven-day stress test at 75% relative humidity (RH) and 40° C. (Table 5).

[3] = Salt screen of Compound 2: XRPD after drying and humidification; settings: vacuum 50° C. at least 3 h, >95% RH overnight
[4] = Solubility of Compound 1 salts in organic solvents (solvent volumes); format: physicochemical
Protocol: Preparation of Additional Salts: Additional salts shown in the Table below were prepared using procedures similar to those described above and the solubility of the resulting salts of Compound 1 was evaluated.

[5] = Stability study of Compound 1 drug substance; format: physicochemical; settings: 1 month / three months (Example 10)
Protocol: A stability study is conducted for Compound 1. Samples were stored at: 30° C.±2° C./65%±5% Relative Humidity (RH), or 40° C.±2° C./75%±5% RH. At regular intervals (e.g., initial, 1, 3, 6, 9, 12, 18, 24, and 36 months), tests are performed for description, assay, related substances, water content, polymorphic form, and chiral purity.
A stability study was conducted for Compound 1 crystalline free base Form 2. Samples were stored at: (1) 30° C.±2° C./65%±5% Relative Humidity (RH), with data collected at 0, 1, 3, 6, 9, and 12 months; and (2) 40° C.±2° C./75%±5% RH, with data collected at 0, 1, 3, and 6 months. At the indicated time points, tests were performed for description, assay, related substances, water content, polymorphic form, and chiral purity.

[6] = Desolvation experiments on solvated forms (heating, then XRPD); format: physicochemical
Protocol: Desolvation experiments were carried out on the solvated forms identified during the polymorph screen to establish the relationships between the forms. Samples were heated to a temperature at which the solids fully desolvated (based on TG/DSC characterisation data) and where exothermic events were observed after desolvation a separate experiment was carried out to assess for additional solid forms.

[7] = target temperature 150 °C, after desolvation
[8] = target temperature 200 °C, after exothermic event

Row | SMILES | Solubility, Volume (at 10-20° C.) ([4]; 2-MeTHF) | Solubility, Volume (at 10-20° C.) ([4]; Acetone) | Solubility, Volume (at 10-20° C.) ([4]; CPME) | Solubility, Volume (at 10-20° C.) ([4]; EtOAc) | Solubility, Volume (at 10-20° C.) ([4]; IPA) | Solubility, Volume (at 10-20° C.) ([4]; IPAc) | Solubility, Volume (at 10-20° C.) ([4]; MeCN) | Solubility, Volume (at 10-20° C.) ([4]; THF) | Solubility, Volume (at 10-20° C.) ([4]; Toluene) | Solubility, Volume (at 10-20° C.) ([4]; t-AmOH) | Solid Form post-heating [6, 7] | other results
1 | CCn1cc(Cc2cn(C)nc2-c2ccc(F)cc2[C@@H](C)Oc2cc(Br)cnc2N)c(Cl)n1 [Camsylate Salt] |  |  |  |  |  |  |  |  |  |  |  | Solubility (mg solid/mL water) [1]: <3 mg solid/mL water; XRPD Pattern Recovered [1]: Form A; Purity (%) After [2]: 99.65%; Purity (%) Before [2]: 99.59%; XRPD Pattern After [2]: Form A; Stability of crystalline salt pattern to drying and humidification [3]: stable to drying and humidification
2 | CCn1nc(Cl)c2c1-c1cnc(N)c(c1)O[C@H](C)c1cc(F)ccc1-c1nn(C)cc1C2 [Citric Acid salt] | 8-10 V | 6-8 V | 330 V | >400 V | 24-28 V | >400 V | 300-400 V | 10-12 V | >400 V | 86-90 V |  | 
3 | CCn1nc(Cl)c2c1-c1cnc(N)c(c1)O[C@H](C)c1cc(F)ccc1-c1nn(C)cc1C2 [Compound 1] |  |  |  |  |  |  |  |  |  |  |  | Chemical and physical stability (description, assay, related substances, water content, polymorphic form, chiral purity) ([5]; 30° C.±2° C./65%±5% RH): No meaningful changes; Chemical and physical stability (description, assay, related substances, water content, polymorphic form, chiral purity) ([5]; 40° C.±2° C./75%±5% RH): No meaningful changes
4 | CCn1cc(Cc2cn(C)nc2-c2ccc(F)cc2[C@@H](C)Oc2cc(Br)cnc2N)c(Cl)n1 [Esylate Salt] |  |  |  |  |  |  |  |  |  |  |  | Solubility (mg solid/mL water) [1]: 5 mg solid/mL water; XRPD Pattern Recovered [1]: Form A; Purity (%) After [2]: 99.75%; Purity (%) Before [2]: 99.75%; XRPD Pattern After [2]: Form A; Stability of crystalline salt pattern to drying and humidification [3]: stable to drying and humidification
5 | CCn1nc(Cl)c2c1-c1cnc(N)c(c1)O[C@H](C)c1cc(F)ccc1-c1nn(C)cc1C2 [Form 1] |  |  |  |  |  |  |  |  |  |  | Form 2 | Solid Form post-heating ([6]; target temperature 105 °C, after desolvation): Form 2
6 | CCn1nc(Cl)c2c1-c1cnc(N)c(c1)O[C@H](C)c1cc(F)ccc1-c1nn(C)cc1C2 [Form 4] |  |  |  |  |  |  |  |  |  |  |  | Solid Form post-heating ([6]; target temperature 132 °C, after desolvation): Form 2; Solid Form post-heating ([6]; target temperature 170 °C, after exothermic event): Form 2
7 | CCn1nc(Cl)c2c1-c1cnc(N)c(c1)O[C@H](C)c1cc(F)ccc1-c1nn(C)cc1C2 [Form 7] |  |  |  |  |  |  |  |  |  |  |  | Solid Form post-heating ([6]; target temperature 134 °C, after desolvation): Form 2
8 | CCn1nc(Cl)c2c1-c1cnc(N)c(c1)O[C@H](C)c1cc(F)ccc1-c1nn(C)cc1C2 [Form 8] |  |  |  |  |  |  |  |  |  |  | Form 2 | Solid Form post-heating [6, 8]: Form 2
9 | CCn1nc(Cl)c2c1-c1cnc(N)c(c1)O[C@H](C)c1cc(F)ccc1-c1nn(C)cc1C2 [Form 9] |  |  |  |  |  |  |  |  |  |  | Form 2 | 
10 | CCn1nc(Cl)c2c1-c1cnc(N)c(c1)O[C@H](C)c1cc(F)ccc1-c1nn(C)cc1C2 [Form 11] |  |  |  |  |  |  |  |  |  |  |  | Solid Form post-heating ([6]; target temperature 130 °C, after desolvation): Form 2; Solid Form post-heating [6, 8]: Form 2
11 | CCn1cc(Cc2cn(C)nc2-c2ccc(F)cc2[C@@H](C)Oc2cc(Br)cnc2N)c(Cl)n1 [Free Base] |  |  |  |  |  |  |  |  |  |  |  | Solubility (mg solid/mL water) [1]: <3 mg solid/mL water; XRPD Pattern Recovered [1]: Amorphous

More lines, main results first:

Row | Solubility, Volume (at 10-20° C.) ([4]; 2-MeTHF) | Solubility, Volume (at 10-20° C.) ([4]; Acetone) | Solubility, Volume (at 10-20° C.) ([4]; CPME) | Solubility, Volume (at 10-20° C.) ([4]; EtOAc) | Solubility, Volume (at 10-20° C.) ([4]; IPA) | Solubility, Volume (at 10-20° C.) ([4]; IPAc) | Solubility, Volume (at 10-20° C.) ([4]; MeCN) | Solubility, Volume (at 10-20° C.) ([4]; THF) | Solubility, Volume (at 10-20° C.) ([4]; Toluene) | Solubility, Volume (at 10-20° C.) ([4]; t-AmOH) | Solid Form post-heating [6, 7] | SMILES | other results
12 |  |  |  |  |  |  |  |  |  |  | Form 2 | CCn1nc(Cl)c2c1-c1cnc(N)c(c1)O[C@H](C)c1cc(F)ccc1-c1nn(C)cc1C2 [Form 10] | 
13 |  |  |  |  |  |  |  |  |  |  | Form 2 | CCn1nc(Cl)c2c1-c1cnc(N)c(c1)O[C@H](C)c1cc(F)ccc1-c1nn(C)cc1C2 [Form 12] | 
14 |  |  |  |  |  |  |  |  |  |  | Form 2 | CCn1nc(Cl)c2c1-c1cnc(N)c(c1)O[C@H](C)c1cc(F)ccc1-c1nn(C)cc1C2 [Form 13] | 
15 |  |  |  |  |  |  |  |  |  |  | Amorphous | CCn1nc(Cl)c2c1-c1cnc(N)c(c1)O[C@H](C)c1cc(F)ccc1-c1nn(C)cc1C2 [Form 15] | Solid Form post-heating [6, 8]: Form 2
16 | 8-10 V | 8-10 V | 50-60 V | 80-90 V | 8-9 V | 90-100 V | 150-200 V | 3-4 V | >400 V | 22-24 V |  | CCn1nc(Cl)c2c1-c1cnc(N)c(c1)O[C@H](C)c1cc(F)ccc1-c1nn(C)cc1C2 [Fumaric Acid salt] | 
17 | >160 V | 58-60 V | >500 V | >100 V | 140-150 V | >400 V | >400 V | >160 V | >400 V | >400 V |  | CCn1nc(Cl)c2c1-c1cnc(N)c(c1)O[C@H](C)c1cc(F)ccc1-c1nn(C)cc1C2 [H3PO4 salt] | 
18 | >400 V | 22-24 V | >500 V | >400 V | 8-10 V | >400 V | 8-10 V | 300-400 V | >400 V | 18-20 V |  | CCn1nc(Cl)c2c1-c1cnc(N)c(c1)O[C@H](C)c1cc(F)ccc1-c1nn(C)cc1C2 [HCl salt] | 
19 | 4-6 V | 2-4 V | 60-70 V | 12-14 V | 18-20 V | 52-56 V | 30-32 V | 8-10 V | >400 V | 18-20 V |  | CCn1nc(Cl)c2c1-c1cnc(N)c(c1)O[C@H](C)c1cc(F)ccc1-c1nn(C)cc1C2 [L-Tartaric Acid Salt] | 
20 | >400 V | 56-60 V | >400 V | 300-400 V | 56-60 V | 260-300 V | 6-8 V | 60-100 V | >400 V | 340-360 V |  | CCn1nc(Cl)c2c1-c1cnc(N)c(c1)O[C@H](C)c1cc(F)ccc1-c1nn(C)cc1C2 [MSA salt] | 
21 | 50-60 V | 2-4 V | 220 V | 20-30 V | 70-80 V | 20-30 V | 16-20 V | 2-4 V | >400 V | 6-8 V |  | CCn1nc(Cl)c2c1-c1cnc(N)c(c1)O[C@H](C)c1cc(F)ccc1-c1nn(C)cc1C2 [Maleic Acid salt] | 
22 | 18-20 V | 26-28 V | 100-140 V | 26-30 V | 300-400 V | 56-60 V | 90-100 V | 4-6 V | 320-360 V | >400 V |  | CCn1nc(Cl)c2c1-c1cnc(N)c(c1)O[C@H](C)c1cc(F)ccc1-c1nn(C)cc1C2 [Salicylic acid salt] | 
23 | >400 V | 10-12 V | >400 V | 18-20 V | >400 V | 18-20 V | 8-10 V | 280-300 V | >400 V | >400 V |  | CCn1nc(Cl)c2c1-c1cnc(N)c(c1)O[C@H](C)c1cc(F)ccc1-c1nn(C)cc1C2 [TsOH salt] | 
